Experimental data as given in patent publication US10434083B2, “Transmammary delivery of cyclooxygenase-2 inhibitors for analgesia in neonates” (Iowa State University Research Foundation, Inc., priority 2018, dated 2019).
Where two headings read alike, the source gives them in different places.

Test: Pharmacokinetics of firocoxib in a single sow after IM injection (Example 1)
Format: in vivo, swine
Details: 1.5 mg/kg IM; for AUC: im, 1.5 mg/kg
From the text: The objective of this study was to characterize the pharmacokinetic profile and transmammary delivery of firocoxib in a single sow and her litter when administered via injection to provide analgesia to piglets via the milk prior to routine piglet processing procedures. One crossbred sow and her litter sourced from the MVS-Klitz Farm was used for this project. The sow was in good health, and had not received treatment with anti-inflammatory drugs by any route. The study sow was housed in a farrowing crate. Feed and water was provided ad libitum throughout the study period. No additional medications were provided. Study animals were identified using unique duplicate ear tags and/or tattoos.
There was one treatment group in this study (refer to Table 1). The sow was given firocoxib (20 mg/mL) on Study Day 0. Firocoxib was administered via injection five (+/−2) days post-farrow, at 1.5 mg/kg IM.
Blood (sodium heparin tubes) was collected from the sow via jugular venipuncture at the following time points after drug administration via injection to the sow: 0, 1, 2, 3, 4, 6, 8, 10, 12, 24, 36 and 48 hours. The piglets had blood collected via jugular venipuncture at the following timepoints following sow drug administration via injection:
Approximately 10 mL of blood was collected from the sow at each time point, and approximately 5 mL was collected from each piglet at each time point. Following blood collection at the 48 hour time point, the sow and piglets was euthanized and disposed of per study site procedures.
Samples were stored on ice after collection and before processing. Blood samples were centrifuged for 10 minutes at 1,500 g. Collected plasma was placed in duplicate cryovials with a single-use transfer pipette and frozen at −70° C. until analysis. Cryovials were labeled with the time point and collection date.
Plasma concentrations of firocoxib were measured with high-pressure liquid chromatography-tandem mass spectrometry (Shimadzu Prominence, Shimadzu Scientific Instruments, Columbia, Md., USA). Briefly, frozen samples or standards were thawed at room temperature and rigorously vortexed once completely thawed. A 200 μL plasma sample was added to 400 μL 5% Acetic Acid and the internal standard celecoxib (20 μg/mL). The entire diluted sample was added to a 3 mL solid phase extraction tubes (OASIS) which was conditioned prior with methanol (2 ml) and equilibrated with water (2 ml). The sample was then gravity filtered through the solid phase extraction tubes and subsequently washed with 1 ml 5% acetic acid, followed by 1 ml solution of 25% methanol/75% water. Using 2×0.75 mL acetonitrile, firocoxib was eluted into a glass tube and an additional internal standard piroxicam (10 ng/μL) was added. Samples were evaporated to dryness at 48° C. under a stream of nitrogen, reconstituted with […] 25% in water and pipetted into an injection vial for LC-MS/MS analysis with the injection volume set to 10 μL. The mobile phase consisted of acetonitrile and formic acid (0.1%) at a flow rate of 0.4 mL/min. The concentration of this mobile phase began at 85% formic acid (0.1%) from 0 to 0.5 minutes with a linear gradient to 50% formic acid (0.1%) at 2.5 minutes, which was maintained until 3 minutes, followed by a linear gradient to 85% formic acid (0.1%) at 4 minutes with a total run time of 5 minutes.
The standard curve of firocoxib concentration determined using porcine plasma was linear from 0.020 to 5.0 μg/mL and was accepted when the correlation coefficient exceeded 0.99 and measured values were within 15% of the actual values. The lower limit of quantification, defined as the lowest concentration on a linear standard curve with predicted concentrations within 15% of the actual concentration, was 0.020 μg/mL.
Firocoxib time concentration data was analyzed using a commercially available computer software program (Kinetica, Thermo Scientific).

[1] = female, crossbred, swine, plasma

In the case of `CC1(C)OC(=O)C(OCC2CC2)=C1c1ccc(S(C)(=O)=O)cc1` [firocoxib], the “% AUCextra” value is reported as 33.02%, the AUMCextra is reported as 322.22 μg/mL * (h)^2 and the AUMClast is reported as 155.18 μg/mL * (h)^2. The AUMtot was 477.39 μg/mL * (h)^2, the Clearance was 32.45 L/h and the Vss was 1390.95 L. The Vz was 1285.61 L, the AUC(0-t) (female, crossbred, pig, plasma) was 7460 ng·h/mL and the MRT (female, crossbred, pig, plasma) was 42.9 h. The MRT last (female, crossbred, pig, plasma) was 20.8 h, the half-life (female, crossbred, pig, plasma) was 27.5 h and the AUC (female, crossbred, pig, plasma, read-out: AUCextra) was 3680 ng·h/mL. The AUC (female, crossbred, pig, plasma, read-out: AUCtot) was 11100 ng·h/mL, the Cmax [1] was 287 ng/mL and the Tmax [1] was 6 h.
